Columns and labels:
JAK2 = JAK2 (Homo sapiens (Human), UniProt O60674); experiment: JAK2 enzyme activity assay (Thermo Fisher SelectScreen, Z-lyte); assay type: biochemical; conditions: read-out: JAK2 Inhibition IC50
Procedure: (§1) JAK1, JAK2, JAK3, and Tyk-2 Enzyme Activity Assays
(§2) The inhibitory potency of candidate compounds of JAK1, JAK2, and Tyk-2 was done at Thermo Fisher Scientific in their Selectscreen using a Z-lyte assay. Following are the assay details for each enzyme.
JAK2: The 2×JAK2/Tyr 06 mixture is prepared in 50 mM HEPES pH 7.5, 0.01% BRIJ-35, 10 mM MgCl2, 1 mM EGTA. The final 10 μL Kinase Reaction consists of 0.12-0.5 ng JAK2 and 2 M Tyr 06 in 50 mM HEPES pH 7.5, 0.01% BRIJ-35, 10 mM MgCl2, 1 mM EGTA. After the one hour Kinase Reaction incubation, 5 μL of a 1:128 dilution of Development Reagent A is added.
(§3) Data reduction for JAK1, JAK2 and TYK2 is done the same, independent of the enzyme run. In summary, background signal is defined in the absence of enzyme and uninhibited signal is defined in the presence of vehicle (2% DMSO) alone. Compounds were evaluated in an 11 point dose-response ranging from […] to 0.34 nM. IC50 values of compounds are determined using a 4 parameter logistical fit of emission ratio as a function of the concentration of compound.

Tyk-2 = Tyk-2 (Homo sapiens (Human), UniProt P29597); experiment: Tyk-2 enzyme activity assay (Thermo Fisher SelectScreen, Z-lyte); assay type: biochemical; conditions: read-out: Tyk-2 Inhibition IC50
Tyk-2, sequence (P29597 whole entry): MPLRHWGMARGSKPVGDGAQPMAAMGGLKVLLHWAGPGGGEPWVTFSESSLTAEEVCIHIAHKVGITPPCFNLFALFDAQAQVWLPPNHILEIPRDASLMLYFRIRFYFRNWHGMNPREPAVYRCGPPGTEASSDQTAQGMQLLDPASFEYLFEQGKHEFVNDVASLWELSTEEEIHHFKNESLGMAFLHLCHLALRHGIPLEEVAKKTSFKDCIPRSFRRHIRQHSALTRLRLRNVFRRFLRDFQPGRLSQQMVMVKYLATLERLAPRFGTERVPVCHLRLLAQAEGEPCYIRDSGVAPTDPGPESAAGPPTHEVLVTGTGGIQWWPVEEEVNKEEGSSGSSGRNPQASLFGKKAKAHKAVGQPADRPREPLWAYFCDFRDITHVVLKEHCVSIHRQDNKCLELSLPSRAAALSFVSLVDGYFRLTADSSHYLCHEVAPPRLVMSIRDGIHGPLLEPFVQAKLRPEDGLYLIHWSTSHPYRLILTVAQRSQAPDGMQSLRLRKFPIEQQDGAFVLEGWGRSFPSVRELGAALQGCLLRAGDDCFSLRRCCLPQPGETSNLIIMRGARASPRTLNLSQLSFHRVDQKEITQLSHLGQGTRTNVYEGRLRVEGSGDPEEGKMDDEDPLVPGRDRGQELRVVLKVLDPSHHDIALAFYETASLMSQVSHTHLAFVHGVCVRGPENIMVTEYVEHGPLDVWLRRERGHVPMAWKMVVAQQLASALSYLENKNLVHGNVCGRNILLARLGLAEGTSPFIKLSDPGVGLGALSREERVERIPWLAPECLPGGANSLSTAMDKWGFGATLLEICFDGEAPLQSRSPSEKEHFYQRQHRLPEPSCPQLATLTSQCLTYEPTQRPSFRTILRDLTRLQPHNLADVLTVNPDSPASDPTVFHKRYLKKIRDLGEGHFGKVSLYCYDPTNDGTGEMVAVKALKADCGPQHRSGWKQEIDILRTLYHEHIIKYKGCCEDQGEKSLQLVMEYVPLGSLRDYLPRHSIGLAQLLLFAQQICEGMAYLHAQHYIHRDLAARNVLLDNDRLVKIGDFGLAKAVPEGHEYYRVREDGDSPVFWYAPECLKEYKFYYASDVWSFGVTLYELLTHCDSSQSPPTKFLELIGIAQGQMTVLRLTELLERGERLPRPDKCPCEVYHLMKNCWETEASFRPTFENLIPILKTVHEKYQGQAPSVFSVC
Procedure: as §1, §2
TYK2: The 2×TYK2/Tyr 03 mixture is prepared in 50 mM HEPES pH 6.5, 0.01% BRIJ-35, 10 mM MgCl2, 1 mM EGTA, 0.02% NaN3. The final 10 μL Kinase Reaction consists of 3.75-15 ng TYK2 and 2 M Tyr 03 in 50 mM HEPES pH 7.0, 0.01% BRIJ-35, 10 mM MgCl2, 1 mM EGTA, 0.01% NaN3. After the one hour KinaseReaction incubation, 5 μL of a 1:4096 dilution of Development Reagent A is added.
as §3

[1] = test system: IFNγ stimulated STAT1 phosphorylation on Tyr701 (JAK1/2); experiment: JAK1/2 cellular target modulation: IFNγ stimulated phospho-STAT1 in PBMC; assay type: cell-based; conditions: human PBMC, IFNγ 10 ng/ml; read-out: Infγ-STAT1 IC50
Text: (§4) JAK Cellular Target Modulation Assays
(§5) Target modulation was based upon the ability of a compound to inhibit JAK isoform specific phosphorylation of selected substrates. IL-2 stimulated STAT5 phosphorylation on Tyr694 was used to assess JAK1/3 compound selectivity. GM-CSF stimulated STAT5 phosphorylation on Tyr694 was used to assess JAK2 compound selectivity. IFNγ stimulated STAT1 phosphorylation on Tyr701 was used to assess JAK1/2 compound selectivity. IL-12 stimulated STAT4 phosphorylation on Tyr693 was used to assess JAK2/TYK2 compound selectivity. For all four assays, human PBMC from frozen stocks were thawed, pelleted, resuspended in complete media (90% RPMI, 10% heat inactivated FBS, 10 mM HEPES, 47 μM 2-ME, pen/strep) and placed in wells of a 96 well V-bottom plate at 200,000 per well in 120 μl complete media. Compounds were added as 15 μl per well of 10× working stock solutions in complete media with 1% DMSO (or medium with 1% DMSO for controls) and placed on a plate shaker in a 37° C. incubator with 5% CO2 for 1 hour with gentle shaking (setting of 3). Stimulation used the addition of soluble cytokines. For the JAK1/3 phospho-STAT5 assay, 15 μl of 10× working stock recombinant human IL-2 was added to a final concentration of 25 ng/ml. For the JAK2 phospho-STAT5 assay, 15 μl of 10× working stock recombinant human GM-CSF was added to a final concentration of 5 ng/ml. For the JAK1/2 phospho-STAT1 assay, 15 μl of 10× working stock of recombinant human IFNγ was added to a final concentration of 10 ng/ml. For the JAK2/TYK2 phospho-STAT4 assay, 15 μl of 10× working stock of recombinant human IL-12 was added to a final concentration of 1.7 ng/ml. Plates were then placed back on the plate shaker in the incubator for an additional 5, 5, 10, and 25 minutes respectively upon which the plates were removed from the incubator, sealed with a plate sealer and the cells pelleted at 400×g for 5 minutes. After pelleting, the media was removed by aspiration and the cells were lysed in assay specific cell lysis buffer. The levels of phospho-STATS were determined using a Phospho (Tyr694) STAT5a,b Whole Cell Lysate kit from Meso Scale Discovery. Levels of phospho-STAT1 were determined using a CST-PathScan Phospho-STAT1 (Tyr701) Sandwich ELISA kit. Levels of phospho-STAT4 were determined using a Phospho-STAT4 (Tyr693) Whole Cell Lysate kit from Meso Scale Discovery.

JAK1 = JAK1 (Homo sapiens (Human), UniProt P23458); experiment: JAK1 enzyme activity assay (Thermo Fisher SelectScreen, Z-lyte); assay type: biochemical; conditions: read-out: JAK1 Inhibition IC50
JAK1, sequence (P23458 whole entry): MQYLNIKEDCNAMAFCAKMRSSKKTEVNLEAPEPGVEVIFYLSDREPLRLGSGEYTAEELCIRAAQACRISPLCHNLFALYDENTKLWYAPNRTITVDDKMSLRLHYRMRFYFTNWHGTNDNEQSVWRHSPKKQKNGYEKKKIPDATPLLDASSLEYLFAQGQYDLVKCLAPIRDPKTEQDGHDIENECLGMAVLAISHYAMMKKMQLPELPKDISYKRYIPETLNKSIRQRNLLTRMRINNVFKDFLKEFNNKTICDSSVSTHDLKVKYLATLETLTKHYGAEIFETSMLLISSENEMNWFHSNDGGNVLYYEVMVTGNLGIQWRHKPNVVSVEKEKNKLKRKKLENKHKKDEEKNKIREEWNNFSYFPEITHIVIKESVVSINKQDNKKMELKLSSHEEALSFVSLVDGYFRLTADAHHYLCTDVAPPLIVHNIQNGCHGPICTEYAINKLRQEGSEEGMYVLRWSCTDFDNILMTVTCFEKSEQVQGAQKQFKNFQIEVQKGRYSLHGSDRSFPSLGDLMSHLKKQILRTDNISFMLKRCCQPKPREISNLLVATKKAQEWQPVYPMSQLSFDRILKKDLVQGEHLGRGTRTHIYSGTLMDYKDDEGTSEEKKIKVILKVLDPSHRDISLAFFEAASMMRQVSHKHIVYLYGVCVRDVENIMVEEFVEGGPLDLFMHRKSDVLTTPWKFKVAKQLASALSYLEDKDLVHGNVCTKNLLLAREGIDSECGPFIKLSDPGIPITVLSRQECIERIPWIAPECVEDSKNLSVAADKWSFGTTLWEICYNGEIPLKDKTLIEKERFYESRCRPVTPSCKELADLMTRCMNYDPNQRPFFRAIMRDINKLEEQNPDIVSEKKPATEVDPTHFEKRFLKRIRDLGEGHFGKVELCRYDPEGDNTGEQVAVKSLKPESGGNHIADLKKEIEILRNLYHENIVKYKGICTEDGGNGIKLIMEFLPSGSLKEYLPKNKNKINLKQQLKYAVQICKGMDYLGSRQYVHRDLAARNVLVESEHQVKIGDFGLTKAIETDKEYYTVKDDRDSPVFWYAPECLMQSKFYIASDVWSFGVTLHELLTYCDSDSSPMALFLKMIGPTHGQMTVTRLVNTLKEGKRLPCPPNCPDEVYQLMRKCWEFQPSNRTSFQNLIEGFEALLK
Procedure: as §1, §2
JAK: The 2×JAK-enzyme/Tyr 06 mixture is prepared in 50 mM HEPES pH 6.5, 0.01% BRIJ-35, 10 mM MgCl2, 1 mM EGTA, 0.02% NaN3. The final 10 μL of the Kinase Reaction consists of 21.2-91.5 ng JAK and 2 M Tyr 06 in 50 mM HEPES pH 7.0, 0.01% BRIJ-35, 10 mM MgCl2, 1 mM EGTA, 0.01% NaN3. After the one hour Kinase Reaction incubation, 5 μL of a 1:128 dilution of Development Reagent is added.
as §3

[2] = test system: IL-2 stimulated STAT5 phosphorylation on Tyr694 (JAK1/3); experiment: JAK1/3 cellular target modulation: IL-2 stimulated phospho-STAT5 in PBMC; assay type: cell-based; conditions: human PBMC, IL-2 25 ng/ml; read-out: IL2-STAT5 IC50
Text: as §4, §5

JAK3 (a.a. 781-1124) = JAK3 (a.a. 781-1124) (Homo sapiens (Human), UniProt P52333); experiment: JAK3 enzyme activity assay (SRCtide phosphorylation, Caliper); assay type: biochemical; conditions: 1 uM ATP; read-out: JAK3 Inhibition IC50
JAK3 (a.a. 781-1124), sequence (P52333 781-1124): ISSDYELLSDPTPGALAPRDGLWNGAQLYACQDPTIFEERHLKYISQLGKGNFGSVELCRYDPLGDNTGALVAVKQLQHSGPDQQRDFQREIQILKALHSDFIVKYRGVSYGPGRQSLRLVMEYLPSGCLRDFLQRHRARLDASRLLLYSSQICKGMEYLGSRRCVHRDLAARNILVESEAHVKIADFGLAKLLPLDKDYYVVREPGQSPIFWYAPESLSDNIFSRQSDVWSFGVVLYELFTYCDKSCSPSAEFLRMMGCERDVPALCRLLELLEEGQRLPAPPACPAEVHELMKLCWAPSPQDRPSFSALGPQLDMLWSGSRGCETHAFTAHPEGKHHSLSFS
Procedure: as §1
Kinase reactions were run in a 384-well Greiner plate with 2% final DMSO concentration under the buffer conditions of 20 mM HEPES, pH 7.5, 10 mM MgCl2, 0.01% BSA, and 0.0005% Tween-20. The kinase reaction components were 2.5 nM JAK3, 1 μM SRCtide peptide and 1 uM ATP. Examples were tested in dose-response starting at 2 M (11 concentrations, 3-fold serial dilution, duplicate reactions). The reactions were incubated at room temperature for 40 minutes, then stopped by adding a 1:1 volume of 30 mM EDTA in 20 mM HEPES, pH 7.5 (15 mM EDTA final). After the reaction was stopped, the phosphorylated and unphosphorylated peptides were separated and quantified using a Caliper LC3000/EZ-Reader system and HTS Well Analyzer Software (Caliper, A PerkinElmer Company, Hopkinton, Mass.). GraFit (Erithacus Software Ltd., Horley, U.K.) was used to calculate inhibitor potency by fitting dose-response data to the 4-parameter logistical IC50 equation.

JAK2, sequence (O60674 whole entry): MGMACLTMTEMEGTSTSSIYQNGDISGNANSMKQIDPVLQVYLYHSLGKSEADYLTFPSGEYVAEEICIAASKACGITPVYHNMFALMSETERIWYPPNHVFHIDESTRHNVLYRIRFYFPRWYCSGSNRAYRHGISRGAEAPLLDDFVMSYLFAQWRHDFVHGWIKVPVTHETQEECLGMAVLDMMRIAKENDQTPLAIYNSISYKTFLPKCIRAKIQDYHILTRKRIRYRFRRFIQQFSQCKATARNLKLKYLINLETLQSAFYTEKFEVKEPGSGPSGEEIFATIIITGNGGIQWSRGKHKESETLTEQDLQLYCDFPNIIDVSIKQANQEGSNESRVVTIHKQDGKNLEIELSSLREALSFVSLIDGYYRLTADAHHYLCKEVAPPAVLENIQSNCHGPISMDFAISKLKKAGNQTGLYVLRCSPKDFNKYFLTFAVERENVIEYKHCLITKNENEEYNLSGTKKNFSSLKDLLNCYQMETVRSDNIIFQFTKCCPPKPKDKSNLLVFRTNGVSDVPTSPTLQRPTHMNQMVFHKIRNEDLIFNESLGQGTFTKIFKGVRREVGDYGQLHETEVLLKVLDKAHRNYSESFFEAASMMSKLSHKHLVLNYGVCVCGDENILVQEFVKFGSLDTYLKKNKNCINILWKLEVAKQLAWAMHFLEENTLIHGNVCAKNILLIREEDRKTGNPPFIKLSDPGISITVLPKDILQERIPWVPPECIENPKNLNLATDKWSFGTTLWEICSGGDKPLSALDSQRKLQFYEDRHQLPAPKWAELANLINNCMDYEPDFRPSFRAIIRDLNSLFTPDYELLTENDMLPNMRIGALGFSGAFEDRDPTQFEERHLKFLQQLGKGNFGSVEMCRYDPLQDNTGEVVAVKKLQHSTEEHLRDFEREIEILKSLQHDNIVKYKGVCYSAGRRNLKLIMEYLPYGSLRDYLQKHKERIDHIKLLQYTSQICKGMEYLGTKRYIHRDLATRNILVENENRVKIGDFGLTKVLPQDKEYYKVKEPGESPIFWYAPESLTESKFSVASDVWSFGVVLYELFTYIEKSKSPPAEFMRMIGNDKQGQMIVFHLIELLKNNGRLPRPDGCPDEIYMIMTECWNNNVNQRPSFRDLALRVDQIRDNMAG

IC50 (JAK2) [nM]	IC50 (Tyk-2) [nM]	IC50 [1] [nM]	IC50 (JAK1) [nM]	IC50 [2] [nM]	IC50 (JAK3 (a.a. 781-1124)) [nM]	SMILES
10 to 100	10 to 100	100 to 1000	≤ 10	≤ 100	10 to 100	N#CCC(=O)N1CCC[C@@H](Nc2c(C#N)cnc3[nH]ccc23)C1 [Example 25, (R)-4-((1-(2-cyanoacetyl)piperidin-3-yl)amino)-1H-pyrrolo[2,3-b]pyridine-5-carbonitrile]
100 to 1000	100 to 1000	–	100 to 1000	> 1000	10 to 100	CNC(=O)c1coc(-c2cnc3[nH]ccc3c2N[C@H]2C[C@@H](C)CN(C(=O)CC#N)C2)n1 [Example 32, 2-(4-(((3S,5R)-1-(2-cyanoacetyl)-5-methylpiperidin-3-yl)amino)-1H-pyrrolo[2,3-b]pyridin-5-yl)-N-methyloxazole-4-carboxamide]
≤ 10	≤ 10	≤ 100	≤ 10	≤ 100	≤ 10	CNC(=O)c1cnc(-c2cnc3[nH]ccc3c2N[C@@H]2CCCN(C(=O)CC#N)C2)s1 [Example 53, (R)-2-(4-((1-(2-cyanoacetyl)piperidin-3-yl)amino)-1H-pyrrolo[2,3-b]pyridin-5-yl)-N-methylthiazole-5-carboxamide]
100 to 1000	100 to 1000	> 1000	10 to 100	100 to 1000	10 to 100	N#CCC(=O)N1CCC[C@@H](Nc2c(-c3cncs3)cnc3[nH]ccc23)C1 [Example 16, (R)-3-oxo-3-(3-((5-(thiazol-5-yl)-1H-pyrrolo[2,3-b]pyridin-4-yl)amino)piperidin-1-yl)propanenitrile]
10 to 100	100 to 1000	–	10 to 100	> 1000	10 to 100	CNC(=O)c1ccnc(-c2cnc3[nH]ccc3c2N[C@@H]2CCCN(C(=O)CC#N)C2)c1 [Example 61, (R)-2-(4-((1-(2-cyanoacetyl)piperidin-3-yl)amino)-1H-pyrrolo[2,3-b]pyridin-5-yl)-N-methylisonicotinamide]
10 to 100	100 to 1000	–	10 to 100	> 1000	100 to 1000	CN(C)S(=O)(=O)Nc1ccnc(-c2cnc3[nH]ccc3c2N[C@@H]2CCCN(C(=O)CC#N)C2)c1 [Example 54, (R)-N-(2-(4-((1-(2-cyanoacetyl)piperidin-3-yl)amino)-1H-pyrrolo[2,3-b]pyridin-5-yl)pyridin-4-yl)N,N-dimethyl sulfuric diamide]
> 1000	> 1000	–	> 1000	> 1000	> 1000	Cn1ccnc1-c1cnc2[nH]ccc2c1N[C@@H]1CCCN(C(=O)CC#N)C1 [Example 17, (R)-3-(3-((5-(1-methyl-1H-imidazol-2-yl)-1H-pyrrolo[2,3-b]pyridin-4-yl)amino)piperidin-1-yl)-3-oxopropanenitrile]
100 to 1000	100 to 1000	–	10 to 100	> 1000	100 to 1000	CS(=O)(=O)Nc1ccnc(-c2cnc3[nH]ccc3c2N[C@@H]2CCCN(C(=O)CC#N)C2)c1 [Example 56, (R)-N-(2-(4-((1-(2-cyanoacetyl)piperidin-3-yl)amino)-1H-pyrrolo[2,3-b]pyridin-5-yl)pyridin-4-yl)methanesulfonamide]
100 to 1000	100 to 1000	–	100 to 1000	> 1000	10 to 100	C[C@@H]1C[C@H](Nc2c(-c3ccncn3)cnc3[nH]ccc23)CN(C(=O)CC#N)C1 [Example 57, 3-((3R,5S)-3-methyl-5-((5-(pyrimidin-4-yl)-1H-pyrrolo[2,3-b]pyridin-4-yl)amino)piperidin-1-yl)-3-oxopropanenitrile]
100 to 1000	100 to 1000	–	100 to 1000	> 1000	10 to 100	C[C@@H]1C[C@H](Nc2c(-c3ncco3)cnc3[nH]ccc23)CN(C(=O)CC#N)C1 (single isomer, unassigned) [Example 9]
–	10 to 100	–	≤ 10	–	–	Cc1ccnc(-c2cnc3[nH]ccc3c2N[C@@H]2CCCN(C(=O)CC#N)C2)n1 [Example 60]
–	–	–	≤ 10	–	–	N#CCC(=O)N1CCC[C@@H](Nc2c(-c3nncs3)cnc3[nH]ccc23)C1 [Example 8, (R)-3-(3-((5-(1,3,4-thiadiazol-2-yl)-1H-pyrrolo[2,3-b]pyridin-4-yl)amino)piperidin-1-yl)-3-oxopropanenitrile]
–	≤ 10	–	≤ 10	–	≤ 10	N#CCC(=O)N1CCC[C@@H](Nc2c(-c3ccncn3)cnc3[nH]ccc23)C1 [Example 24, (R)-3-oxo-3-(3-((5-(pyrimidin-4-yl)-1H-pyrrolo[2,3-b]pyridin-4-yl)amino)piperidin-1-yl)propanenitrile]
10 to 100	10 to 100	–	≤ 10	> 1000	≤ 10	CN(C(=O)CC#N)C1CCN(c2nccc(-c3cnc4[nH]ccc4c3N[C@@H]3CCCN(C(=O)CC#N)C3)n2)C1 (stereo partly drawn) [Example 50, 2-cyano-N-(1-(4-(4-(((R)-1-(2-cyanoacetyl)piperidin-3-yl)amino)-1H-pyrrolo[2,3-b]pyridin-5-yl)pyrimidin-2-yl)pyrrolidin-3-yl)-N-methylacetamide]

Reference: patent publication US11420966B2 (ACLARIS THERAPEUTICS, INC., priority 2019, dated 2022)
